Results as given in patent EP1309253B1, “METHODS AND DEVICES FOR REMOVING NU[…] FROM TOBACCO AND TOBACCO SMOKE” (Cerami Consulting Corporation, priority 2000, dated 2002).

Conditions: 250 mg portions of each compound as filter; smoke from one cigarette drawn through 3 mls of distilled water; read at 405 nm; compared with control cigarette
Procedure: The treated fibers were then dried overnight at 37 C. The smoke from one cigarette was drawn through the filter material and then through 3 mls of distilled water using a water-pipe smoking device which was constructed from a 25 ml glass Erlenmeyer flask attached to a vacuum source with an air flow rate of approximately 35 ml/min. Three 100 microliter aliquots were removed from each flask, placed into ELISA plate wells and read in an ELISA plate reader at 405 nm. The percentage or tar removed is based on a comparison between the cigarette comprising the filter containing the test agent and an appropriate control cigarette.
The treated fibers were dried at 37 C overnight and then made into a tobacco cigarette using a tube cigarette maker. The smoke from 1 of each type of filter cigarette was then drawn through 3 mls of distilled water using a water-pipe smoking device which was constructed from a small (25 ml) glass Erlenmeyer flask attached to a vacuum source with an air flow rate of approximately 35 ml/min. Three 100 microliter aliquots were removed from each flask, placed into ELISA plated wells and read in an ELISA plate reader at 405 nm.

CC1(C)CC(=O)CC(=O)C1 [(5,5-dimethyl-1,3-cyclohexanedione, 5,5-dimethyl-1,3-cyclohexanedione]
% TAR REMOVAL: 26%

O=C1NC(=O)C(=O)C(=O)N1 [Alloxan]
% TAR REMOVAL: 96.9%

CC(C)(C)OC(=O)NCCCCCC(=O)ON1C(=O)CCC1=O [BOC-ε-aminocaproic acid-N-hydroxysuccinimide ester]
% TAR REMOVAL: 74%

CC12CCC(C(=O)C1=O)C2(C)C (stereo not shown) [Camphorquinone]
% TAR REMOVAL: 53.9%

O=C(C=CC=Cc1ccccc1)C=CC=Cc1ccccc1 [Dicinnamalacetone]
% TAR REMOVAL: 98.1%

O=Cc1cccc(OCCOc2cccc(C=O)c2)c1 [Ethylenedioxybis(3-benzaldehyde)]
% TAR REMOVAL: 19.3%

O=C(/C=C/C(=O)c1ccccc1)c1ccccc1 [Fumarophenone]
% TAR REMOVAL: 87.5%

O=C1C=C2CC3(O)COc4c(ccc(O)c4O)C3=C2C=C1O (stereo not shown) [Hematein, 6a,7-dihydro-3,4,6a,10 tetrahydroxyben[b]indeno[1,2-d]pyran-9(6H)-one]
% TAR REMOVAL: 48.7%

O=C1c2ccccc2C(=O)C1(O)C1(O)C(=O)c2ccccc2C1=O [Hydrindantin]
% TAR REMOVAL: 95%

C[C@H](NC(=O)OC(C)(C)C)C(=O)ON1C(=O)CCC1=O [N-α-t-BOC-L-alanine-N-hydroxysuccinimide ester]
% TAR REMOVAL: 25%

O=C1c2ccccc2C(=O)C1(O)O [Ninhydrin]
% TAR REMOVAL: 83%

O=Cc1ccccc1C=O [O-phthaldialdehyde]
% TAR REMOVAL: 84%

O=CC(=O)c1ccccc1 [Phenylglyoxal]
% TAR REMOVAL: 53%
